Measurements as given in US11414416B1, “Compounds and uses thereof” (Foghorn Therapeutics Inc., priority 2019, dated 2022).

Experiments:
[1] = test system: synovial sarcoma cell lines (SYO1, Yamato, HS-SY-II, and ASKA); experiment: Growth of synovial sarcoma cell lines (confluency, crystal violet, colonies; Example 3); assay type: cell-based; conditions: FIGS. 5-7, 1 μM in crystal violet assay
Experimental: (§1) Cells were treated with DMSO or the BRD9 degrader, Compound 1, at indicated concentrations, and proliferation was monitored from day 7 to day 14 by measuring confluency over time using an IncuCyte live cell analysis system (FIG. 5). Growth medium and compounds were refreshed every 3-4 days.
(§2) Cells were seeded into 12-well plates and treated with DMSO, 1 μM BRD9 inhibitor, Compound 2 (also known as BI-7273, see Martin et al, J Med Chem. 59(10):4462-4475 (2016); see structure of Compound 2 below), or 1 μM BRD9 degrader, Compound 1.
(§3) The number of cells was optimized for each cell line. Growth medium and compounds were refreshed every 3-5 days. SYO1, Yamato, A549, 293T and HS-SY-II cells were fixed and stained at day 11. ASKA cells were fixed and stained at day 23. Staining was done by incubation with crystal violet solution (0.5 g Crystal Violet, 27 ml 37% Formaldehyde, 100 mL 10×PBS, 10 mL Methanol, 863 dH20 to 1 L) for 30 min followed by 3× washes with water and drying the plates for at least 24 h at room temperature. Subsequently plates were scanned on an Odyssey CLx Imaging system (FIG. 6).
(§4) Cells were seeded into 96-well ultra low cluster plate (Costar, #7007) in 200 μL complete media and treated at day 2 with DMSO, Staurosporin, or BRD9 degarder, Compound 1, at indicated doses (FIG. 7). Media and compounds were changed every 5 d and cell colonies were imaged at day 14.

[2] = test system: synovial sarcoma cell lines (SYO1, HS-SY-II, and ASKA); experiment: Growth of synovial sarcoma cell lines, crystal violet day 14 (Example 4); assay type: cell-based; conditions: SYO1, HS-SY-II, ASKA; treated daily, day 14, FIG. 8
Experimental: (§5) Procedure: Cells were seeded into 6-well or 12-well plates and were treated daily with a BRD9 degrader (Compound 1), a bromo-domain BRD9 binder (Compound 2), E3 ligase binder (lenalidomide), DMSO, or staurosporin (positive control for cell killing), at indicated concentrations. The number of cells was optimized for each cell line. Growth media was refreshed every 5 days. By day 14, medium was removed, cells were washed with PBS, and stained using 500 μL of 0.005% (w/v) crystal violet solution in 25% (v/v) methanol for at least 1 hour at room temperature. Subsequently plates were scanned on an Odyssey CLx Imaging system.

[3] = test system: non-synovial control cancer cell lines (RD, HCT116, and Calu6); experiment: Growth of non-synovial control cancer cell lines, crystal violet day 14 (Example 4); assay type: cell-based; conditions: treated daily, day 14, FIG. 9
Experimental: as §5

[4] = test system: non-synovial control cancer cell lines (293T, A549, G401); experiment: Growth of non-synovial control cancer cell lines (Example 3); assay type: cell-based; conditions: FIGS. 5-7
Experimental: as §1, §2, §3, §4

[5] = biological target: Nanoluciferase-BRD9 fusion protein (Homo sapiens (Human), UniProt Q9H8M2); experiment: SYO1 BRD9 NanoLuc degradation assay; assay type: cell-based; conditions: Table 5A, SYO-1 cells expressing 3×FLAG-NLuc-BRD9, 6 hours; for DC50: read-out: SYO1 BRD9-NanoLuc degradation IC50
Summary of the method: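 Degradation was read as loss of nanoluciferase signal (Nano-Glo) after 6 h compound exposure in a stable SYO-1 line carrying 3×FLAG-NLuc-BRD9 (8000 cells/well). Normalised between DMSO (high) and a 1 μM known BRD9 degrader (low).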

BRD9 bromodomain = BRD9 bromodomain (Homo sapiens (Human), UniProt Q9H8M2); experiment: BRD9 bromodomain TR-FRET competition binding assay; conditions: Table 4; competition with biotinylated ligand, 3 nM Flag-BRD9, 90 minutes
Summary of the method: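 TEV-cleaved Flag-BRD9 (P133-K239, 3 nM) competed against 3.75 nM biotinylated ligand, with 7.5 nM APC-streptavidin and 0.2 nM Eu-W1024 anti-FLAG, in HEPES pH 7.4, NaCl, TCEP, Tween-20, BSA. Compounds were serially diluted 3-fold; after 90 min at room temperature the 665/615 nm emission ratio was read.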

Nanoluciferase-BRD9 fusion protein, sequence (Q9H8M2 whole entry, the tested form may be a part): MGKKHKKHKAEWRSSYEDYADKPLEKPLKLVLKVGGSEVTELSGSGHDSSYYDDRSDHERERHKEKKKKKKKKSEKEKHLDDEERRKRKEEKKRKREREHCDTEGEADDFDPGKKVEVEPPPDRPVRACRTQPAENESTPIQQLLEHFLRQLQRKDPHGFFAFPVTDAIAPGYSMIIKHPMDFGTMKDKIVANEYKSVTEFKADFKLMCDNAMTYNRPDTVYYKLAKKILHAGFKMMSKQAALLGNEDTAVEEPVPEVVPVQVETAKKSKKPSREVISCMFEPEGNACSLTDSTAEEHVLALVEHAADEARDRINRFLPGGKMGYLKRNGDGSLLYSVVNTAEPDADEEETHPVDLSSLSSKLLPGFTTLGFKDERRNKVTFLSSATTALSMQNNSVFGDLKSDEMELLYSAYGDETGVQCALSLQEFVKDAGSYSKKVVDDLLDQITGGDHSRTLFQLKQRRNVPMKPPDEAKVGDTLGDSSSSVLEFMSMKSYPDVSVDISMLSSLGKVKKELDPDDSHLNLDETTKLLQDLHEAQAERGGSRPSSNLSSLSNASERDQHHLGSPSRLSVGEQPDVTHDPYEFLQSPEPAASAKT
BRD9 bromodomain, sequence (Q9H8M2 133-239): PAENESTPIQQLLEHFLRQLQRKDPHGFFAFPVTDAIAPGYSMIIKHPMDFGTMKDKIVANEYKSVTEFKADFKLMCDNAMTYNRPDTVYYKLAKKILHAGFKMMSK

| SMILES | IC50 [5] | IC50 (BRD9 bromodomain) | DC50 [5] | other results |
| --- | --- | --- | --- | --- |
| COc1cc(-c2cn(C)c(=O)c3cnccc23)cc(OC)c1CN(C)C [Compound 2] | – | – | – | inhibition of growth of synovial sarcoma cell lines [1]: inhibition of the growth of the cells; inhibition of growth of synovial sarcoma cell lines [2]: inhibition of the growth of the cells; inhibition of growth of non-synovial control cancer cell lines [3]: did not result in inhibition of the growth; inhibition of growth of non-synovial control cancer cell lines [4]: does not result in inhibition of the growth |
| COc1cc(-c2cn(C)c(=O)c3cnccc23)cc(OC)c1CN1CCC2(CCN(C(=O)CCOCCOc3ccc4c(c3)C(=O)N(C3CCC(=O)NC3=O)C4=O)C2)C1 (centres unmarked) [Compound D121] | 0.01 to 0.1 µM | 0.01 to 0.1 µM | – | – |
| COc1cc(-c2cn(C)c(=O)c3cnccc23)cc(OC)c1CN1CCC2(CCN(C(=O)CCOCCOc3ccc4c(c3)C(=O)N(C3CCC(=O)NC3=O)C4=O)CC2)C1 (centres unmarked) [Compound D120] | 0.01 to 0.1 µM | 0.01 to 0.1 µM | – | – |
| COc1cc(-c2cn(C)c(=O)c3cnccc23)cc(OC)c1CN1CCC2(C[C@H]2NC(=O)CCOCCOc2cccc3c2C(=O)N(C2CCC(=O)NC2=O)C3=O)C1 (some centres unmarked) [Compound D111] | – | < 0.01 µM | 0.01 to 0.1 µM | – |
| COc1cc(-c2cn(C)c(=O)c3cnccc23)cc(OC)c1CN(C)CC1CC2(CCN(C(=O)CCOCCOc3cccc4c3C(=O)N(C3CCC(=O)NC3=O)C4=O)CC2)CO1 (centres unmarked) [Compound D109] | – | < 0.01 µM | 0.01 to 0.1 µM | – |
| COc1cc(-c2cn(C)c(=O)c3cnccc23)cc(OC)c1CN1CC(C(=O)NCCS(=O)(=O)CCNc2cccc3c2C(=O)N(C2CCC(=O)NC2=O)C3=O)C1 (centres unmarked) [Compound D30, 1-(2,6-dimethoxy-4-(2-methyl-1-oxo-1,2-dihydro-2,7-naphthyridin-4-yl)benzyl)-N-(2-((2-((2-(2,6-dioxopiperidin-3-yl)-1,3-dioxoisoindolin-4-yl)amino)ethyl)sulfonyl)ethyl)azetidine-3-carboxamide] | – | < 0.01 µM | 0.01 to 0.1 µM | – |
| COc1cc(-c2cn(C)c(=O)c3cnccc23)cc(OC)c1CN1CC(C(=O)NCCCCCCCCNc2cccc3c2C(=O)N(C2CCC(=O)N(C)C2=O)C3=O)C1 (centres unmarked) [Compound D8, 1-[[2,6-dimethoxy-4-(2-methyl-1-oxo-1,2-dihydro-2,7-naphthyridin-4-yl)phenyl]methyl]-N-(8-[[2-(1-methyl-2,6-dioxopiperidin-3-yl)-1,3-dioxo-2,3-dihydro-1H-isoindol-4-yl]amino]octyl)azetidine-3-carboxamide formic acid] | – | < 0.01 µM | > 1 µM | – |
| COc1cc(-c2cn(C)c(=O)c3cnccc23)cc(OC)c1CN1CC(S(=O)(=O)NCCCCCCNc2ccc3c(c2)C(=O)N(C2CCC(=O)NC2=O)C3=O)C1 (centres unmarked) [Compound D67, 1-[[2,6-dimethoxy-4-(2-methyl-1-oxo-1,2-dihydro-2,7-naphthyridin-4-yl)phenyl]methyl]-N-(6-[[2-(2,6-dioxopiperidin-3-yl)-1,3-dioxo-2,3-dihydro-1H-isoindol-5-yl]amino]hexyl)azetidine-3-sulfonamide formic acid] | < 0.01 µM | < 0.01 µM | – | – |
| COc1cc(-c2cn(C)c(=O)c3cnccc23)cc(OC)c1CN(C)CC1CC12CCN(C(=O)CCOCCOc1ccc3c(c1)C(=O)N(C1CCC(=O)NC1=O)C3=O)CC2 (centres unmarked) [Compound D172] | – | < 0.01 µM | 0.01 to 0.1 µM | – |
| COc1cc(-c2cn(C)c(=O)c3cnccc23)cc(OC)c1CN(C)C1CCC2CN(C(=O)CCOCCOc3cccc4c3C(=O)N(C3CCC(=O)NC3=O)C4=O)CC21 (centres unmarked) [Compound D161] | – | < 0.01 µM | 0.01 to 0.1 µM | – |
| COc1cc(-c2cn(C)c(=O)c3cnccc23)cc(OC)c1CN(C)CC1CC2(CCN(C(=O)CCOCCOc3ccc4c(c3)C(=O)N(C3CCC(=O)NC3=O)C4=O)CC2)C1 (centres unmarked) [Compound D175] | 0.01 to 0.1 µM | 0.01 to 0.1 µM | – | – |
| COc1cc(-c2cn(C)c(=O)c3cnccc23)cc(OC)c1CN1CCC(OC2CCN(C(=O)CCOCCOc3ccc4c(c3)C(=O)N(C3CCC(=O)NC3=O)C4=O)CC2)CC1 (centres unmarked) [Compound D131] | < 0.01 µM | < 0.01 µM | – | – |
| COc1cc(-c2cn(C)c(=O)c3cnccc23)cc(OC)c1CN1CC(C(=O)NCCCCCCCCNc2cccc3c2C(=O)N(C2CCC(=O)NC2=O)C3=O)C1 (centres unmarked) [Compound D1, 1-[[2,6-dimethoxy-4-(2-methyl-1-oxo-1,2-dihydro-2,7-naphthyridin-4-yl)phenyl]methyl]-N-(8-[[2-(2,6-dioxopiperidin-3-yl)-1,3-dioxo-2,3-dihydro-1H-isoindol-4-yl]amino]octyl)azetidine-3-carboxamide formic acid] | < 0.01 µM | 0.01 to 0.1 µM | – | – |
| COc1cc(-c2cn(C)c(=O)c3cnccc23)cc(OC)c1CN1CC(NC(=O)CCCCCOc2cccc3c2C(=O)N(C2CCC(=O)NC2=O)C3=O)C1 (centres unmarked) [Compound D5, N-(1-[[2,6-dimethoxy-4-(2-methyl-1-oxo-1,2-dihydro-2,7-naphthyridin-4-yl)phenyl]methyl]azetidin-3-yl)-6-[[2-(2,6-dioxopiperidin-3-yl)-1,3-dioxo-2,3-dihydro-1H-isoindol-4-yl]oxy]hexanamide] | – | < 0.01 µM | 0.01 to 0.1 µM | – |
| COc1cc(-c2cn(C)c(=O)c3cnccc23)cc(OC)c1CN(C)CC1CC2CN(C(=O)CCOCCOc3cccc4c3C(=O)N(C3CCC(=O)NC3=O)C4=O)C[C@H]2C1 (some centres unmarked) [Compound D177] | – | < 0.01 µM | 0.01 to 0.1 µM | – |
| COc1cc(-c2cn(C)c(=O)c3cnccc23)cc(OC)c1CN(C)CC12CC(C(=O)NCCOCCOCCNc3cccc4c3C(=O)N(C3CCC(=O)NC3=O)C4=O)(C1)C2 (centres unmarked) [Compound D55, 3-[([[2,6-dimethoxy-4-(2-methyl-1-oxo-2,7-naphthyridin-4-yl)phenyl]methyl](methyl)amino)methyl]-N-[2-[2-(2-[[2-(2,6-dioxopiperidin-3-yl)-1,3-dioxoisoindol-4-yl]amino]ethoxy)ethoxy]ethyl]bicyclo[1.1.1]pentane-1-carboxamide] | 0.1 to 1 µM | 0.01 to 0.1 µM | – | – |
| COc1cc(-c2cn(C)c(=O)c3cnccc23)cc(OC)c1CN1CC[C@H]1C(=O)NCCN(C)CCNc1cccc2c1C(=O)N(C1CCC(=O)NC1=O)C2=O (stereo partly drawn) [Compound D25, (2S)-1-[[2,6-dimethoxy-4-(2-methyl-1-oxo-1,2-dihydro-2,7-naphthyridin-4-yl)phenyl]methyl]-N-[2-[(2-[[2-(2,6-dioxopiperidin-3-yl)-1,3-dioxo-2,3-dihydro-1H-isoindol-4-yl]amino]ethyl)(methyl)amino]ethyl]azetidine-2-carboxamide] | – | < 0.01 µM | 0.1 to 1 µM | – |
| COc1cc(-c2cn(C)c(=O)c3cnccc23)cc(OC)c1CN1CC2(C1)CN(C(=O)CCCCOc1cccc3c1C(=O)N(C1CCC(=O)NC1=O)C3=O)C2 (centres unmarked) [Compound D34, 4-((5-(6-(2,6-dimethoxy-4-(2-methyl-1-oxo-1,2-dihydro-2,7-naphthyridin-4-yl)benzyl)-2,6-diazaspiro[3.3]heptan-2-yl)-5-oxopentyl)oxy)-2-(2,6-dioxopiperidin-3-yl)isoindoline-1,3-dione] | < 0.01 µM | < 0.01 µM | – | – |
| COc1cc(-c2cn(C)c(=O)c3cnccc23)cc(OC)c1CN1CCC2(C[C@@H]2NC(=O)CCOCCOc2ccc3c(c2)C(=O)N(C2CCC(=O)NC2=O)C3=O)C1 (some centres unmarked) [Compound D125] | – | < 0.01 µM | 0.01 to 0.1 µM | – |
| COc1cc(-c2cn(C)c(=O)c3cnccc23)cc(OC)c1CN1CC2(CC(NC(=O)CCOCCOc3cccc4c3C(=O)N(C3CCC(=O)NC3=O)C4=O)C2)C1 (centres unmarked) [Compound D93] | – | < 0.01 µM | 0.01 to 0.1 µM | – |
| COc1cc(-c2cn(C)c(=O)c3cnccc23)cc(OC)c1CN1CCC2(C1)CN(C(=O)CCOCCOc1ccc3c(c1)C(=O)N(C1CCC(=O)NC1=O)C3=O)C2 (centres unmarked) [Compound D99] | 0.01 to 0.1 µM | 0.01 to 0.1 µM | – | – |
